The text below walks through data of the supplement of paper PMC8967900.
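Also: ALL cell lines in 384-well plates, five doses spanning 10,000-fold, each plate scaled between vehicle and 100 µmol/L benzalkonium chloride controls, sDSS an adapted area-under-curve metric.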

For the first test, the system named is MOLT-4. Briefly: selective drug sensitivity score (sDSS, relative to normal bone marrow) (sDSS (score)); higher = more potent and effective on the cell line relative to normal bone marrow cells. To be noted: 72 h.
`Cn1cc(-c2ccc(F)c(C(F)(F)F)c2)nc1C1CCN(c2ncnc3[nH]ncc23)CC1` (top concentration 10000 nM): the “selective drug sensitivity score” value was found to be 0.36.

For the molecule `O=C(Nc1ccc2[nH]nc(-c3ccncc3)c2c1)[C@@H]1CCN(CC(=O)N2CCN(c3ccc(-c4ncccn4)cc3)CC2)C1` (top concentration 10000 nM), the “selective drug sensitivity score” value was -3.04.

For `CC(C)(C)c1cc(NC(=O)Nc2ccc(Oc3ccnc4[nH]c(=O)cnc34)cc2F)n(-c2ccccc2)n1` (top concentration 25000 nM), the “selective drug sensitivity score” value is -2.98.

As for `Nc1ncnc2c1nc(N)n2[C@@H]1O[C@H](CO)[C@@H](O)[C@H]1O` [8-amino-adenosine] (top concentration 50000 nM), the “selective drug sensitivity score” value was -2.52.

In the case of `CC(C)[C@@H](CS(=O)(=O)C(C)C)N1C(=O)[C@@](C)(CC(=O)O)C[C@H](c2cccc(Cl)c2)[C@H]1c1ccc(Cl)cc1` [AMG-232] (top concentration 10000 nM), the “selective drug sensitivity score” value worked out at 10.1.

In the case of `CC(C)[C@H](C(=O)Nc1ccc(C(=O)NO)cc1)c1ccccc1` [AR-42] (top concentration 10000 nM), the “selective drug sensitivity score” value is 7.08.

Consider `O=C(Nc1c[nH]nc1-c1nc2ccc(CN3CCOCC3)cc2[nH]1)NC1CC1` [AT9283] (top concentration 1000 nM), for which the “selective drug sensitivity score” value stood at 3.72.

`CCN(CCO)CCCOc1ccc2c(Nc3cc(CC(=O)Nc4cccc(F)c4)[nH]n3)ncnc2c1` [AZD1152-HQPA] (top concentration 1000 nM): the “selective drug sensitivity score” value worked out at 13.5.

As to `Cc1[nH]nc(C(F)(F)F)c1Cc1sc2c(c1C(=O)N1C[C@](C)(O)CO1)c(=O)n(C)c(=O)n2C(C)C` [AZD3965] (top concentration 1000 nM), the “selective drug sensitivity score” value is 0.

In another test the test system is NALL-1. The description is as above. To be noted: 72 h.
With `COC12C(COC(N)=O)C3=C(C(=O)C(C)=C(N)C3=O)N1CC1NC12` (stereo in doubt) [Mitomycin_C] (top concentration 10000 nM), the “selective drug sensitivity score” value was -2.86.

Take `Cc1c(-c2c(-c3ccc(F)o3)sc3ncnc(O[C@H](Cc4ccccc4OCc4ccnn4CC(F)(F)F)C(=O)O)c23)ccc(OCCN2CCN(C)CC2)c1Cl` (top concentration 1000 nM): the “selective drug sensitivity score” value was -7.74.

Regarding `Cc1ncc(Cl)cc1NCc1ccc(C(=O)N[C@@H](CC2CCCC2)C(=O)NC2CC2)s1` (top concentration 5000 nM), the “selective drug sensitivity score” value is -0.94.

As for `CCn1c(-c2nonc2N)nc2c(C#CC(C)(C)O)ncc(OC[C@H]3CCCNC3)c21` (top concentration 10000 nM), the “selective drug sensitivity score” value is -0.32.

Turning to `CN(c1ncccc1CNc1nc(Nc2ccc3c(c2)CC(=O)N3)ncc1C(F)(F)F)S(C)(=O)=O` (top concentration 10000 nM), the “selective drug sensitivity score” value came to 2.42.

For `CNc1ncc2cc(-c3cc(NC(=O)NCCC(C)(C)C)c(F)cc3C)c(C)nc2n1` (top concentration 10000 nM), the “selective drug sensitivity score” value was 4.96.

Take `C[C@@]1(C(=O)Nc2ccc(F)nc2)CCCN1c1nc(Nc2cc(C3CC3)n[nH]2)c2cccn2n1` (top concentration 10000 nM): the “selective drug sensitivity score” value stood at 8.98.

With `Cc1nc(Nc2n[nH]c3c2CN(C(=O)N[C@H](CN(C)C)c2ccccc2)C3(C)C)c2sccc2n1` (top concentration 10000 nM), the “selective drug sensitivity score” value was -7.42.

In the case of `Cn1cc(-c2[nH]c3cc(NC(=O)[C@H](N)C4CCCCC4)cc4c3c2C=NNC4=O)cn1` (top concentration 10000 nM), the “selective drug sensitivity score” value stood at 4.58.

For `Cn1cc(-c2ccc(F)c(C(F)(F)F)c2)nc1C1CCN(c2ncnc3[nH]ncc23)CC1` (top concentration 10000 nM), the “selective drug sensitivity score” value was determined as 0.46.

For `O=C(Nc1ccc2[nH]nc(-c3ccncc3)c2c1)[C@@H]1CCN(CC(=O)N2CCN(c3ccc(-c4ncccn4)cc3)CC2)C1` (top concentration 10000 nM), the “selective drug sensitivity score” value was -4.14.

On to `CC(C)(C)c1cc(NC(=O)Nc2ccc(Oc3ccnc4[nH]c(=O)cnc34)cc2F)n(-c2ccccc2)n1` (top concentration 25000 nM), for which the “selective drug sensitivity score” value was -0.38.

As for `Nc1ncnc2c1nc(N)n2[C@@H]1O[C@H](CO)[C@@H](O)[C@H]1O` [8-amino-adenosine] (top concentration 50000 nM), the “selective drug sensitivity score” value was determined as 2.08.

With `CC(C)[C@@H](CS(=O)(=O)C(C)C)N1C(=O)[C@@](C)(CC(=O)O)C[C@H](c2cccc(Cl)c2)[C@H]1c1ccc(Cl)cc1` [AMG-232] (top concentration 10000 nM), the “selective drug sensitivity score” value was -8.14.

Turning to `CC(C)[C@H](C(=O)Nc1ccc(C(=O)NO)cc1)c1ccccc1` [AR-42] (top concentration 10000 nM), the “selective drug sensitivity score” value is 3.68.

Take `O=C(Nc1c[nH]nc1-c1nc2ccc(CN3CCOCC3)cc2[nH]1)NC1CC1` [AT9283] (top concentration 1000 nM): the “selective drug sensitivity score” value was found to be 9.02.

Consider `CCN(CCO)CCCOc1ccc2c(Nc3cc(CC(=O)Nc4cccc(F)c4)[nH]n3)ncnc2c1` [AZD1152-HQPA] (top concentration 1000 nM), for which the “selective drug sensitivity score” value turned out to be 9.54.

As for `Cc1[nH]nc(C(F)(F)F)c1Cc1sc2c(c1C(=O)N1C[C@](C)(O)CO1)c(=O)n(C)c(=O)n2C(C)C` [AZD3965] (top concentration 1000 nM), the “selective drug sensitivity score” value came out at 3.8.

The next test concerns NALM-16. The test is described as above. To be noted: 72 h.
As to `COC12C(COC(N)=O)C3=C(C(=O)C(C)=C(N)C3=O)N1CC1NC12` (stereo in doubt) [Mitomycin_C] (top concentration 10000 nM), the “selective drug sensitivity score” value is -2.86.

With `Cc1c(-c2c(-c3ccc(F)o3)sc3ncnc(O[C@H](Cc4ccccc4OCc4ccnn4CC(F)(F)F)C(=O)O)c23)ccc(OCCN2CCN(C)CC2)c1Cl` (top concentration 1000 nM), the “selective drug sensitivity score” value is -4.64.

Turning to `Cc1ncc(Cl)cc1NCc1ccc(C(=O)N[C@@H](CC2CCCC2)C(=O)NC2CC2)s1` (top concentration 5000 nM), the “selective drug sensitivity score” value was 1.06.

For the molecule `CCn1c(-c2nonc2N)nc2c(C#CC(C)(C)O)ncc(OC[C@H]3CCCNC3)c21` (top concentration 10000 nM), the “selective drug sensitivity score” value amounted to 2.68.

Regarding `CN(c1ncccc1CNc1nc(Nc2ccc3c(c2)CC(=O)N3)ncc1C(F)(F)F)S(C)(=O)=O` (top concentration 10000 nM), the “selective drug sensitivity score” value was 0.42.

As to `CNc1ncc2cc(-c3cc(NC(=O)NCCC(C)(C)C)c(F)cc3C)c(C)nc2n1` (top concentration 10000 nM), the “selective drug sensitivity score” value stood at 1.76.

In the case of `C[C@@]1(C(=O)Nc2ccc(F)nc2)CCCN1c1nc(Nc2cc(C3CC3)n[nH]2)c2cccn2n1` (top concentration 10000 nM), the “selective drug sensitivity score” value was determined as 2.88.

`Cc1nc(Nc2n[nH]c3c2CN(C(=O)N[C@H](CN(C)C)c2ccccc2)C3(C)C)c2sccc2n1` (top concentration 10000 nM): the “selective drug sensitivity score” value came to 2.58.

Regarding `Cn1cc(-c2[nH]c3cc(NC(=O)[C@H](N)C4CCCCC4)cc4c3c2C=NNC4=O)cn1` (top concentration 10000 nM), the “selective drug sensitivity score” value amounted to 3.98.

In the case of `Cn1cc(-c2ccc(F)c(C(F)(F)F)c2)nc1C1CCN(c2ncnc3[nH]ncc23)CC1` (top concentration 10000 nM), the “selective drug sensitivity score” value was -0.14.

With `O=C(Nc1ccc2[nH]nc(-c3ccncc3)c2c1)[C@@H]1CCN(CC(=O)N2CCN(c3ccc(-c4ncccn4)cc3)CC2)C1` (top concentration 10000 nM), the “selective drug sensitivity score” value was -4.24.

Regarding `CC(C)(C)c1cc(NC(=O)Nc2ccc(Oc3ccnc4[nH]c(=O)cnc34)cc2F)n(-c2ccccc2)n1` (top concentration 25000 nM), the “selective drug sensitivity score” value is -2.78.

As for `Nc1ncnc2c1nc(N)n2[C@@H]1O[C@H](CO)[C@@H](O)[C@H]1O` [8-amino-adenosine] (top concentration 50000 nM), the “selective drug sensitivity score” value amounted to 4.48.

Consider `CC(C)[C@@H](CS(=O)(=O)C(C)C)N1C(=O)[C@@](C)(CC(=O)O)C[C@H](c2cccc(Cl)c2)[C@H]1c1ccc(Cl)cc1` [AMG-232] (top concentration 10000 nM), for which the “selective drug sensitivity score” value is -10.2.

`CC(C)[C@H](C(=O)Nc1ccc(C(=O)NO)cc1)c1ccccc1` [AR-42] (top concentration 10000 nM): the “selective drug sensitivity score” value is 1.68.

Consider `O=C(Nc1c[nH]nc1-c1nc2ccc(CN3CCOCC3)cc2[nH]1)NC1CC1` [AT9283] (top concentration 1000 nM), for which the “selective drug sensitivity score” value was -0.68.

With `CCN(CCO)CCCOc1ccc2c(Nc3cc(CC(=O)Nc4cccc(F)c4)[nH]n3)ncnc2c1` [AZD1152-HQPA] (top concentration 1000 nM), the “selective drug sensitivity score” value came to 0.34.

Consider `Cc1[nH]nc(C(F)(F)F)c1Cc1sc2c(c1C(=O)N1C[C@](C)(O)CO1)c(=O)n(C)c(=O)n2C(C)C` [AZD3965] (top concentration 1000 nM), for which the “selective drug sensitivity score” value turned out to be 0.
